Measured values published in patent US20230285383A1, “TREATMENT OF SKIN DISEASES” (Ichilov Tech Ltd., priority 2020, published 2023).

Columns and labels:
human psoriatic skin = assay: Chimeric mice carrying human psoriatic skin; format: in vivo, SCID mice; settings: i.p., 10 days; CPT 3 mg/kg five times a week; CPT-11 30 or 50 mg/kg three times a week
Text: (§1) Chimeric mice carrying human psoriatic skin were generated using SCID mice, 2-3 months of age. Animals were maintained in a pathogen-free animal facility. A psoriasis-like phenotype was induced in normal human skin grafted onto the mice by intradermal injection of natural killer/T cells derived from psoriatic patients as previously described [Gilhar A et al. J Invest Dermatol (2011) 131: 118-124].
(§2) Formaldehyde-fixed 5-μm paraffin-embedded sections from skin biopsies were deparaffinized and treated with 3% H2O2 in methanol for 15 minutes at room temperature, warmed in a microwave oven in citrate buffer in a pressure cooker for 25 minutes, and stained with a monoclonal anti-Ki67 antibody (Thermo Scientific) for 1 hour at room temperature. Following 3 washings (10 minutes each) with phosphate-buffered saline (PBS), the antibodies were imaged using the ABC technique (Zymed Laboratories, South San Francisco, Calif.) and the slides were counterstained with hematoxylin.
(§3) Epidermal thickness was defined as the distance between the granular layer and the basement membrane and was measured at 10 randomly selected locations for each biopsy using NIS-Elements BR 3.2 software (Nikon, NY USA). An image was taken and was manually measured in the software by selecting an upper and lower border, as defined above. The distance was measured in microns.
To assess the potential therapeutic role of the compounds of some embodiments of the invention, the two compounds were administered systemically (i.p) to chimeric mice carrying human psoriatic skin.
as §1, with “In short,” for “Chimeric mice carrying human psoriatic skin were generated using”, “age,” for “age. Animals”
Two weeks after natural killer/T-cell injection (6 weeks after human skin grafting), mice were injected i.p. five times a week. Five groups of mice were treated as follows: one group of mice was injected five times a week with the vehicle (10% DMSO in […] was used as a vehicle control); a second group of mice was injected five times a week CPT (3 mg/kg); a third group of mice was injected three times a week CPT-11 (50 mg/kg); a fourth group of mice was injected three times a week CPT-11 (30 mg/kg); and a fifth group of mice, was treated with dexamethasone (DEX) cream applied 5 times a week on the graft, as positive control (DEX was expected to attenuate inflammation in this model). Each group included six mice, and the treatment was performed for a total of 10 days. The grafts were harvested from the five groups of mice, paraffin-embedded, stained for hematoxylin and eosin (H&E), analyzed and scored for the average improvement of the clinical and histological psoriasiform phenotype.

HeLa cells = assay: RNA sequence analysis of HeLa cells treated with CPT; format: cell-based, human; settings: 10 μM, 48 hours
Procedure: FIG. 10A presents RNA-seq analysis of HeLa cells treated with CPT. HeLa cells were treated with 10 μM CPT or DMSO for 48 hours (three independent experiments). Total RNA was extracted and sent to RNA-seq. Volcano plot represents the number of genes that were differentially expressed. […] P-value for enrichment for genes belongs to a known psoriasis related pathogenic pathways (taken from IPA database) was calculated using hypergeometric distribution (using a background of 24190 genes).
HeLa cells were treated with 10 μM CPT or DMSO for 48 hours (three independent experiments). Total RNA was extracted and sent to RNA-sequencing.
The obtained data is presented in FIGS. 10A-B. FIG. 10A presents a volcano plot that show the number of statistically significant differential gene (DE) as response to CPT treatment. […] In addition, calculation of p-value for enrichment for genes belongs to a known psoriasis related pathogenic pathways (taken from IPA database) using hypergeometric distribution (using a background of 24190 genes). The table in FIG. 10B summarizes the number of genes in each group, the number of differentially expressed genes, the overlap, and the adjusted p-value (after correcting for multiple testing).

SAMD9 [1] = assay: SAMD9 expression by qRT-PCR in primary fibroblasts; format: cell-based, human
Procedure: Primary fibroblasts were isolated from human adult skin and were grown in High Glucose DMEM, 10% Fetal Bovine Serum, L-glutamine and Pen-Strep. Medium was changed every 2-3 days. Cells were used at passage 2-3.
(§4) Of note, when cells were incubated with CPT and CPT-11, they were grown in the appropriate medium with 0.1% FCS only.
RNA was extracted from cell cultures using an RNA extraction kit (Roche Diagnostics, Mahheim, Germany). cDNA was synthesized from 500 ng of total RNA using the Verso cDNA kit (Thermo Fisher Scientific, Waltham, Mass., USA) or qScript kit (Quanta Biosciences, Gaithersburg, Md., USA). cDNA PCR amplification was carried out using the Fast SYBR Green Master Mix in a StepOnePlus™ Real-Time PCR System (Applied Biosystems, Foster City, Calif., USA) with gene-specific intron-crossing oligonucleotide pairs listed in Table 1 (below). For quantification, standard curves were obtained using serially diluted cDNA amplified in the same qRT-PCR run. The melting temperature (Tm) of the amplified products was measured to confirm the specificity of the reaction conditions. […] Each sample was analyzed in triplicate. mRNA expression level for target gene was normalized to GAPDH. The results are based the amount of target, normalized to an endogenous reference (IACTB) and relative to a calibrator, as calculated by 2-ΔΔCT. […]
SAMD9 expression was measured via qRT-PCR, in triplicates. […]

EGR1 = EGR1 expression by qRT-PCR in Hela cells; format: cell-based, human
Procedure: (§5) HeLa cells were cultured in DMEM 4.5 g/l glucose medium containing 10% FCS, 1% L-glutamine and 1% penicillin and streptomycin (Biological Industries) and grown at 37° C. and 5% CO2.
as §4
(§6) RNA was extracted from cell cultures using an RNA extraction kit (Roche Diagnostics, Mahheim, Germany). cDNA was synthesized from 500 ng of total RNA using the Verso cDNA kit (Thermo Fisher Scientific, Waltham, Mass., USA) or qScript kit (Quanta Biosciences, Gaithersburg, Md., USA). cDNA PCR amplification was carried out using the Fast SYBR Green Master Mix in a StepOnePlus™ Real-Time PCR System (Applied Biosystems, Foster City, Calif., USA) with gene-specific intron-crossing oligonucleotide pairs listed in Table 1 (below). For quantification, standard curves were obtained using serially diluted cDNA amplified in the same qRT-PCR run. The melting temperature (Tm) of the amplified products was measured to confirm the specificity of the reaction conditions. […] Each sample was analyzed in triplicate. mRNA expression level for target gene was normalized to GAPDH. The results are based the amount of target, normalized to an endogenous reference (IACTB) and relative to a calibrator, as calculated by 2-ΔΔCT. […] The expression levels of target genes were expressed as mRNA relative units. […]

SAMD9 [2] = assay: SAMD9 expression by qRT-PCR in HeLa cells; format: cell-based, human
Procedure: as §5, §4, §6

[3] = tested on: imiquimod-induced psoriasiform dermatitis; assay: Imiquimod-induced psoriasiform dermatitis in mice; format: in vivo, Balb/c mice; settings: 7.5 mg/Kg i.p., biopsies at day 6, vs vehicle
Procedure: Balb/c mice (Harlan Laboratories Ltd, Jerusalem, Israel), 9 weeks of age, were maintained in a pathogen-free animal facility. Animal care and research protocols had been approved by the institutional committee for animal use. Imiquimod 5% (Perrigo, Israel) was topically applied to the mice on their upper backs.
as §2
as §3, with “microns. […]” for “microns.”

SAMD9 [4] = assay: SAMD9 expression by qRT-PCR in TERC-transformed fibroblasts; format: cell-based, human; settings: 5 μM, 24 hours, relative to DMSO
Procedure: TERC-transformed fibroblasts were transformed with a pBABE-H2AGFP construct containing the human telomerase gene were cultured High Glucose DMEM, 10% FCS, L-glutamine and Pen-Strep (all cell culture regents from Biological Industries, Israel). Medium was changed every 2-3 days. Cells were used at passage 2-3.
as §4
as §6, with “GAPDH.” for “GAPDH. The results are based the amount of target, normalized to an endogenous reference (IACTB) and relative to a calibrator, as calculated by 2-ΔΔCT.”

[5] = Hela cells, 1-10 μM for 48 hours, or 10 μM for 48 and 72 hours

Row | SMILES | clinical and histological psoriasiform phenotype (human psoriatic skin) | epidermal thickness (human psoriatic skin) | inflammation index (human psoriatic skin) | keratinocyte proliferation (Ki67) (human psoriatic skin) | expression of genes of psoriasis related pathways (HeLa cells; enrichment by hypergeometric distribution) | number of genes downregulated (HeLa cells; vs DMSO, FDR<0.01) | number of genes upregulated (HeLa cells; vs DMSO, FDR<0.01) | SAMD9 expression, dose dependence (SAMD9 [1]; 1 μM, 2 μM, 5 μM and 10 μM) | SAMD9 expression (SAMD9 [1]; 5 μM, 24 hours, relative to DMSO) | EGR1 expression (EGR1; 10 μM, 24, 48 and 72 hours, result sentence prints primary fibroblast cells, method Hela cells) | SAMD9 expression (SAMD9 [2]; HeLa cells, 5 μM, 24 hours, relative to DMSO) | epidermal thickness [3] | index of proliferation (Ki67) [3] | SAMD9 expression (SAMD9 [4]) | EGR1 expression (EGR1; [5]) | SAMD9 expression (SAMD9 [2]; [5])
1 | CC[C@@]1(O)C(=O)OCc2c1cc1n(c2=O)Cc2cc3ccccc3nc2-1 [CPT, Camptothecin] | significant clinical and histological attenuation of the psoriasiform phenotype | significant decrease | significant decrease | significant decrease | significant turnover in expression of many genes belongs to psoriasis related pathways | 1192 | 1664 | up-regulate SAMD9 expression in a dose dependent manner | significant induction of SAMD9 expression | significantly down-regulated EGR1 expression | significant induction of SAMD9 expression | decrease in epidermal thickness | decrease | significant induction of SAMD9 expression |  | 
2 | CCc1c2c(nc3ccc(OC(=O)N4CCC(N5CCCCC5)CC4)cc13)-c1cc3c(c(=O)n1C2)COC(=O)[C@]3(O)CC [CPT-11, Irinotecan] | significant clinical and histological attenuation of the psoriasiform phenotype | significant decrease | significant decrease | significant decrease |  |  |  |  |  |  |  |  |  |  | substantial down-regulation of EGR1 | substantial induction of SAMD9 expression
